Literature values, collected in patent US20040132815A1, “Preventive/remedial agent for inflammatory disease in oral-cavity mucosa and the like” (priority 2001, published 2004).

Conditions: compared with the disodium salt

CC(C)c1cc2c(cc1S(=O)(=O)[O-])[C@@]1(C)CCC[C@@](C)(C(=O)O)[C@@H]1CC2.[Na+] [Sulfodehydroabietic acid monosodium salt]
hygroscopicity: less hygroscopic | stability: more stable
